Laboratory results: US20220000811A1, “COMPOSITION FOR PROMOTING HAIR GROWTH COMPRISING A GUANINE DERIVATIVE” (KOREA RESEARCH INSTITUTE OF BIOSCIENCE AND BIOTECHNOLOGY, priority 2019, published 2022)

Assays:
[1] = tested on: human embryonic stem cells (hESCs); assay: Maintaining stemness of human embryonic stem cells in unconditioned medium, AP staining; type: cell-based; conditions: for improvement of effect of maintaining stemness: hESCs in UM
Experimental: Additionally, the effect of the compounds of the present invention on maintaining sternness of human embryonic stern cells (hESCs) was confirmed (FIG. 4). Specifically, when hESCs were cultured in an unconditioned medium (UM), the sternness was lost, and AP activity was weakened (FIG. 4a). […] In particular, when IM176OUT05 was treated at 10 nM and 100 nM concentrations, it was confirmed that the effect of maintaining the sternness was improved by 7.6 times and 8.2 times, respectively (FIG. 4b).

hair follicles = assay: Quantitative histomorphometric analysis of hair follicle cycle and number (H&E); type: in vivo, mouse
Experimental: (§1) During the hair telogen phase, the hair on the dorsal skin of 7-week-old C57BL/6 mice (Dae Han BioLink, Chungbuk, Republic of Korea) was depilated using an animal clipper and wax (Veet, Oxy Reckitt Benckiser, Seoul, Republic of Korea). From the next day, 200 μL of placebo (control), 1% IM, 1% minoxidil, or 1% metformin was applied daily to the depilated area using a sterile cotton swab. Images of each animal were captured daily, and the degree of darkness of the color on dorsal skin was quantified in the same area (1.6 cm×3 cm) using the Image J program. The mice were sacrificed, and skin tissues on days 0, 7, 14, and 20 were obtained. Half of the tissues were used for RNA isolation, and the other half were fixed with 4% paraformaldehyde overnight for histochemical analysis. The tissues fixed in Example 1.1. were immersed in 30% sucrose, and then embedded in an OCT compound (Sakura Finetek USA Inc, Torrance, Calif., USA). Frozen fragments were obtained using a cryostat sectioning device (Leica, Wetzlar, Germany) and stained using hematoxylin (Sigma) and eosin (Sigma) (H&E), or each of the antibodies shown in Table 1 below. Immunohistochemical analysis was performed, and fluorescence images were taken with an Olympus microscope (Olympus) According to the guidelines for accurately classifying the hair cycle stages, the hair cycle was quantified by classifying individual hair follicles with H&E staining micrographs in the longitudinal section of each mouse (n>10). The percentage of the anagen phase of the hair was calculated for each group. Hair follicles in the same area (1300 μm width) were counted by H&E staining micrographs in the cross section of each mouse (n>10).

[2] = tested on: K15, β-catenin, Ki67, Shh, PDK, PDH; assay: Histochemical (immunostaining) analysis of skin markers; type: in vivo, mouse
Experimental: as §1, with “(Olympus)” for “(Olympus) According to the guidelines for accurately classifying the hair cycle stages, the hair cycle was quantified by classifying individual hair follicles with H&E staining micrographs in the longitudinal section of each mouse (n>10). The percentage of the anagen phase of the hair was calculated for each group. Hair follicles in the same area (1300 μm width) were counted by H&E staining micrographs in the cross section of each mouse (n>10).”

Cc1ccccc1CCNC(=N)NC(=N)N [IM176OUT05, N-1-(2-methyl)phenethylbiguanide]
improvement of effect of maintaining stemness ([1]; 10 nM): 7.6 times | improvement of effect of maintaining stemness ([1]; 100 nM): 8.2 times | AP staining (stemness) ([1]; hESCs in unconditioned medium, low dose): increase in AP staining | number of hair follicles compared to control (hair follicles; day 7, cross section): significantly increased | number of hair follicles compared to control (hair follicles; day 20): significantly higher | stage of most hair follicles (hair follicles; day 20, longitudinal section): growth phases V and VI | progression of the hair follicle cycle (hair follicles; histomorphometry): stimulated the progression of the hair follicle cycle | Ki67-positive proliferating cells ([2]; day 7): identified | PDH expression in Ki67-positive proliferating cells ([2]; day 7): clearly confirmed | PDK expression in K15-positive stem cells ([2]; day 7): detected | expression of δ-catenin ([2]; day 7): increased | keratin 15 (K15) expression in follicle protrusion region compared to control or minoxidil ([2]; day 7): strongly expressed | K15/PDH and Ki67/PDK expressions ([2]; day 20): independently detected | Sonic hedgehog (Shh) detection ([2]; day 20): clearly detected
